Source: the supplement of paper PMC10307832

Assays:
Experiment in all cases: relative viability (nuclei count vs DMSO), 5 days (fraction); higher = more cells survive
GW-2580 + Bortezomib = compound: COC1=CC=C(C=C1)COC2=C(C=C(C=C2)CC3=CN=C(N=C3N)N)OC [GW-2580] + CC(C)C[C@H](NC(=O)[C@H](Cc1ccccc1)NC(=O)c1cnccn1)B(O)O [Bortezomib] (partner 0.002 µM)
Method in brief: (§1)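 Relative viability divides the nuclei count in treated wells by that in vehicle wells. Lung cancer cell lines were seeded in 1536-well plates, dosed by pin tool the next day, and fixed and stained after 5 days in one step with final 0.05% Triton X-100, 1% formaldehyde and 1 ug/ml Hoechst. Dosing was a single drug or a fixed anchor-drug dose plus five library-drug doses (not always all listed) in √10 steps, and values are medians of duplicate plates imaged at 4×.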

GW-2580 + Tozasertib = compound: COC1=CC=C(C=C1)COC2=C(C=C(C=C2)CC3=CN=C(N=C3N)N)OC [GW-2580] + Cc1cc(Nc2cc(N3CCN(C)CC3)nc(Sc3ccc(NC(=O)C4CC4)cc3)n2)n[nH]1 [Tozasertib] (partner 0.1 µM)
Method in brief: as §1

GW-2580 + Phenformin = compound: COC1=CC=C(C=C1)COC2=C(C=C(C=C2)CC3=CN=C(N=C3N)N)OC [GW-2580] + N=C(N)NC(=N)NCCc1ccccc1 [Phenformin] (partner 250 µM)
Method in brief: as §1

GW-2580 + Decitabine = compound: COC1=CC=C(C=C1)COC2=C(C=C(C=C2)CC3=CN=C(N=C3N)N)OC [GW-2580] + Nc1ncn([C@H]2C[C@H](O)[C@@H](CO)O2)c(=O)n1 [Decitabine] (partner 2 µM)
Method in brief: as §1

Fedratinib + Dasatinib = compound: Cc1cnc(Nc2ccc(OCCN3CCCC3)cc2)nc1Nc1cccc(S(=O)(=O)NC(C)(C)C)c1 [Fedratinib] + Cc1nc(Nc2ncc(C(=O)Nc3c(C)cccc3Cl)s2)cc(N2CCN(CCO)CC2)n1 [Dasatinib] (partner 0.075 µM)
Method in brief: as §1

Cell Line	relative viability (GW-2580 + Bortezomib; first compound 0.08 µM)	relative viability (GW-2580 + Bortezomib; first compound 0.8 µM)	relative viability (GW-2580 + Bortezomib; first compound 2.53 µM)	relative viability (GW-2580 + Bortezomib; first compound 8 µM)	relative viability (GW-2580 + Tozasertib; first compound 0.08 µM)	relative viability (GW-2580 + Tozasertib; first compound 0.8 µM)	relative viability (GW-2580 + Tozasertib; first compound 2.53 µM)	relative viability (GW-2580 + Tozasertib; first compound 8 µM)	relative viability (GW-2580 + Phenformin; first compound 0.08 µM)	relative viability (GW-2580 + Phenformin; first compound 0.8 µM)	relative viability (GW-2580 + Phenformin; first compound 2.53 µM)	relative viability (GW-2580 + Phenformin; first compound 8 µM)	relative viability (GW-2580 + Decitabine; first compound 0.08 µM)	relative viability (GW-2580 + Decitabine; first compound 0.8 µM)	relative viability (GW-2580 + Decitabine; first compound 2.53 µM)	relative viability (GW-2580 + Decitabine; first compound 8 µM)	relative viability (Fedratinib + Dasatinib; first compound 0.1 µM)	relative viability (Fedratinib + Dasatinib; first compound 0.3162 µM)	relative viability (Fedratinib + Dasatinib; first compound 1 µM)
LC-2-ad	1.05	1.08	0.922	1.08	0.501	0.412	0.405	0.475	0.595	0.674	0.634	0.682	0.82	0.913	0.833	0.815	0.702	0.636	0.266
LCLC-97TM1	0.404	1.02	0.288	0.982	0.289	0.161	0.154	0.261	0.443	0.469	0.438	0.454	0.241	0.224	0.213	0.209	0.822	0.831	0.723
LCLC-103H	1.28	1.11	1.03	0.96	0.555	0.432	0.484	0.396	0.345	0.328	0.331	0.376	0.752	0.724	0.661	0.706	0.492	0.294	0.511
LOU-NH91	0.522	0.534	0.468	0.46	0.687	0.657	0.625	0.589	0.692	0.757	0.611	0.66	0.82	0.861	0.782	0.905	0.518	0.518	0.557
LU99A	1.1	1.15	0.986	1.17	0.27	0.294	0.23	0.235	0.773	0.823	0.647	0.808	0.924	1.05	0.812	0.952	0.494	0.508	0.42
LXF-289	1	1.06	0.93	0.916	0.191	0.188	0.161	0.157	0.514	0.521	0.489	0.506	0.358	0.391	0.407	0.368	0.249	0.158	0.203
NCI-H23	0.979	0.988	1.12	1.04	0.418	0.401	0.392	0.31	0.872	0.768	0.798	0.851	0.324	0.334	0.308	0.283	0.805	0.415	0.911
NCI-H322M	1.29	1.4	1.31	1.43	0.491	0.553	0.476	0.593	0.787	0.819	0.866	0.782	0.73	0.816	0.611	0.489	0.254	0.24	0.222
NCI-H441	0.608	0.254	0.288	1.13	0.698	0.704	0.584	0.655	0.997	0.852	0.773	1.05	0.207	0.198	0.243	0.222	0.618	0.314	0.493
NCI-H460	1.29	1.27	1.03	1.19	0.349	0.394	0.422	0.33	0.713	0.576	0.494	0.528	0.577	0.574	0.461	0.461	0.496	0.415	0.329
NCI-H520	0.58	0.923	0.602	0.672	0.421	0.459	0.443	0.46	0.79	0.59	0.592	0.587	0.501	0.489	0.524	0.545	0.18	0.205	0.196
NCI-H596	0.938	1.06	1.23	1.01	0.956	1.02	0.891	0.919	0.92	0.657	0.811	0.804	1.12	0.883	1.89	0.937	0.512	0.628	0.538
NCI-H647	1.1	0.994	0.756	1.09	0.358	0.218	0.418	0.189	0.605	0.623	0.401	0.661	0.402	0.272	0.361	0.383	0.21	0.203	0.142
NCI-H650	0.807	1.06	0.658	0.845	0.721	0.743	0.669	0.589	0.43	0.474	0.392	0.481	0.337	0.315	0.292	0.328	0.378	0.434	0.394
NCI-H661	0.741	0.752	0.747	0.676	0.34	0.344	0.367	0.336	0.269	0.282	0.282	0.271	0.597	0.542	0.516	0.546	0.83	0.912	0.612
NCI-H727	1.01	1.18	1.35	0.835	0.67	0.621	0.515	0.551	0.662	0.574	0.499	0.652	0.784	1.12	0.808	0.768	0.296	0.299	0.392
NCI-H838	0.943	0.831	0.691	1.02	0.291	0.341	0.295	0.248	0.651	0.59	0.549	0.648	0.438	0.466	0.435	0.426	0.281	0.29	0.239
NCI-H1355	1.24	1.38	1.06	1.16	0.532	0.494	0.396	0.477	0.426	0.496	0.347	0.397	0.314	0.339	0.322	0.353	0.67	0.75	0.374
NCI-H1437	0.654	0.569	0.518	0.516	0.412	0.433	0.405	0.291	0.339	0.31	0.332	0.357	0.564	0.574	0.617	0.535	0.301	0.409	0.329
NCI-H1650	0.218	0.232	0.164	0.199	0.455	0.543	0.452	0.363	0.516	0.461	0.372	0.536	0.502	0.396	0.468	0.372		0.295	0.231
NCI-H1651	0.953	1.08	0.89	0.942	0.763	0.745	0.702	0.569	0.36	0.371	0.304	0.358	0.565	0.666	0.551	0.548	0.437	0.418	0.329
NCI-H1666	0.727	1.2	0.791	0.89	0.675	0.661	0.581	0.592	0.581	0.607	0.604	0.554	0.604	0.888	0.738	0.698	0.843	0.675	0.731
NCI-H1734	0.976	0.995	0.775	0.967	0.25	0.267	0.277	0.252	0.35	0.374	0.38	0.359	0.522	0.457	0.539	0.55	0.455	0.464	0.4
NCI-H1755	1.03	1.1	0.883	0.852	0.545	0.576	0.523	0.538	0.667	0.631	0.326	0.594	0.695	0.714	0.757	0.654	0.351	0.404	0.39
NCI-H1915	1	1.11	0.959	1.05	0.469	0.44	0.489	0.387	0.392	0.368	0.362	0.38	0.248	0.272	0.575	0.251	0.258	0.307	0.179
NCI-H1975	0.373	0.368	0.317	0.366	0.854	1.06	0.614	0.654	0.44	0.43	0.414	0.418	0.417	0.455	0.376	0.4	0.329	0.362	0.285
NCI-H1993	1.27	1.33		0.995	0.618	0.526	0.574	0.549	0.573	0.461	0.486	0.518	0.652	0.665	0.514	0.63	0.591	0.545	0.62
NCI-H2009	1.02	0.955	0.931	0.844	0.744	0.828	0.715	0.707	0.509	0.45	0.409	0.423	0.415	0.427	0.378	0.482	0.232	0.241	0.185
